Data: PubChem BioAssay (NCI)
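Method: 48-hour compound exposure of cells in 96-well plates, five concentrations, linear interpolation of endpoints. Abbreviation: GI50, concentration required for 50% inhibition of growth. The concentration for full growth arrest is given as TGI.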

Columns and labels:
Assay in all cases: growth of human tumour cells (NCI), 48 h
[1] = system: PC-3 prostate
[2] = system: NCI-H23 lung
[3] = system: CAKI-1 renal
[4] = system: HL-60(TB) leukemia
[5] = system: A498 renal
[6] = system: RPMI-8226 leukemia
[7] = system: UACC-257 melanoma
[8] = system: HCC-2998 colon
[9] = system: SW-620 colon
[10] = system: COLO 205 colon
[11] = system: OVCAR-8 ovarian
[12] = system: HOP-62 NSCLC
[13] = system: NCI-H522 lung
[14] = system: HOP-92 NSCLC
[15] = system: SK-OV-3 ovarian
[16] = system: HT29 colon
[17] = system: ACHN renal
[18] = system: MOLT-4 leukemia
[19] = system: SNB-75 CNS
[20] = system: HS 578T breast
[21] = system: UO-31 renal
[22] = system: NCI/ADR-RES ovarian
[23] = system: SNB-19 CNS
[24] = system: SK-MEL-5 melanoma
[25] = system: 786-0 renal
[26] = system: TK-10 renal
[27] = system: MDA-MB-231 breast
[28] = system: K-562 leukemia
[29] = system: A549 NSCLC
[30] = system: M14 melanoma
[31] = system: EKVX NSCLC
[32] = system: NCI-H226 lung
[33] = system: SK-MEL-28 melanoma
[34] = system: U251 CNS
[35] = system: OVCAR-4 ovarian
[36] = system: NCI-H460 lung
[37] = system: MCF7 breast
[38] = system: SF-268 CNS
[39] = system: T-47D breast
[40] = system: KM12 colon
[41] = system: OVCAR-5 ovarian
[42] = system: DU-145 prostate
[43] = system: BT-549 breast
[44] = system: CCRF-CEM leukemia
[45] = system: LOX IMVI melanoma
[46] = system: SF-539 CNS
[47] = system: SR leukemia
[48] = system: MALME-3M melanoma
[49] = system: HCT-15 colon
[50] = system: OVCAR-3 ovarian
[51] = system: IGROV1 ovarian
[52] = system: SN12C renal
[53] = system: SK-MEL-2 melanoma
[54] = system: SF-295 CNS
[55] = system: MDA-MB-435
[56] = system: UACC-62 melanoma
[57] = system: HCT-116 colon

CC(C)(O)c1cncc(-c2ccc3ncc(C#N)c(N4CCc5cc(F)c(Cl)cc54)c3c2)c1
GI50 [1]: 2.86 µM | TGI [1]: > 100 µM | GI50 [2]: 3.6 µM | TGI [2]: 64.3 µM | GI50 [3]: 2.37 µM | TGI [3]: > 100 µM | GI50 [4]: 6.06 µM | TGI [4]: 28.2 µM | GI50 [5]: 2.07 µM | TGI [5]: 6.17 µM | GI50 [6]: 2.92 µM | TGI [6]: 87.4 µM | GI50 [7]: 4.22 µM | TGI [7]: 63.3 µM | GI50 [8]: 3.75 µM | TGI [8]: 63.8 µM | GI50 [9]: 4.51 µM | TGI [9]: > 100 µM | GI50 [10]: 4.48 µM | TGI [10]: 26.7 µM | GI50 [11]: 3.19 µM | TGI [11]: > 100 µM | GI50 [12]: 2.7 µM | TGI [12]: 57.3 µM | GI50 [13]: 3.95 µM | TGI [13]: > 100 µM | GI50 [14]: 1.79 µM | TGI [14]: 7.79 µM | GI50 [15]: 1.83 µM | TGI [15]: 8.64 µM | GI50 [16]: 3.31 µM | TGI [16]: > 100 µM | GI50 [17]: 2.89 µM | TGI [17]: > 100 µM | GI50 [18]: 3.11 µM | TGI [18]: > 100 µM | GI50 [19]: 1.22 µM | TGI [19]: 5.67 µM | GI50 [20]: 1.23 µM | TGI [20]: 4.7 µM | GI50 [21]: 0.554 µM | TGI [21]: 8.69 µM | GI50 [22]: 4.4 µM | TGI [22]: 98.2 µM | GI50 [23]: 4.08 µM | TGI [23]: > 100 µM | GI50 [24]: 3.95 µM | TGI [24]: 13.8 µM | GI50 [25]: 3.86 µM | TGI [25]: > 100 µM | GI50 [26]: 8.33 µM | TGI [26]: 40 µM | GI50 [27]: 2.6 µM | TGI [27]: 30.4 µM | GI50 [28]: 7.09 µM | TGI [28]: > 100 µM | GI50 [29]: 3.64 µM | TGI [29]: > 100 µM | GI50 [30]: 3.79 µM | TGI [30]: > 100 µM | GI50 [31]: 2.55 µM | TGI [31]: 11.3 µM | GI50 [32]: 1.77 µM | TGI [32]: 15.4 µM | GI50 [33]: 3.39 µM | TGI [33]: 41 µM | GI50 [34]: 4.71 µM | TGI [34]: > 100 µM | GI50 [35]: 2.84 µM | TGI [35]: 18.5 µM | GI50 [36]: 3.24 µM | TGI [36]: > 100 µM | GI50 [37]: 6 µM | TGI [37]: 53.4 µM | GI50 [38]: 3.84 µM | TGI [38]: > 100 µM | GI50 [39]: 4.06 µM | TGI [39]: 76.5 µM | GI50 [40]: 6.81 µM | TGI [40]: > 100 µM | GI50 [41]: 3.3 µM | TGI [41]: 82.7 µM | GI50 [42]: 3.71 µM | TGI [42]: > 100 µM | GI50 [43]: 2.7 µM | TGI [43]: 22.7 µM | GI50 [44]: 4.25 µM | TGI [44]: > 100 µM | GI50 [45]: 1.81 µM | TGI [45]: 17.3 µM | GI50 [46]: 2.88 µM | TGI [46]: 15.8 µM | GI50 [47]: 3.52 µM | TGI [47]: > 100 µM | GI50 [48]: 1.99 µM | TGI [48]: 7.06 µM | GI50 [49]: 4.28 µM | TGI [49]: > 100 µM | GI50 [50]: 2.91 µM | TGI [50]: 40.3 µM | GI50 [51]: 1.57 µM | TGI [51]: 6.55 µM | GI50 [52]: 2.03 µM | TGI [52]: > 100 µM | GI50 [53]: 4.26 µM | TGI [53]: 21.6 µM | GI50 [54]: 2.38 µM | TGI [54]: 14.1 µM | GI50 [55]: 3.36 µM | TGI [55]: 32.4 µM | GI50 [56]: 1.84 µM | TGI [56]: 10.2 µM | GI50 [57]: 5.84 µM | TGI [57]: > 100 µM
